This note sets out measurements from patent US12031897B2, “Target-locking single-molecule nanoscopy” (Memorial Sloan Kettering Cancer Center, priority 2019, dated 2024).

In assay [1] the test system is Nanog transcription site. Nature of the assay: Nanog transcription bursting (MCP-mNeonGreen, NMG mESCs). In kind it is cell-based, mouse. From the text: It is discovered that Pol II, Sox2 and Brd4 form foci at Nanog transcription sites, with nanoscale organization akin to Pou5f1—colocalization of Pol II with 3′UTR-tagged nascent RNA and resolvable separation of enhancer-associated regulatory factors (FIGS. 9A-9D).
If accumulated Brd4 at Nanog acts mainly as a Pol II pause-release factor, upon Brd4 inhibition a reduction in burst amplitude would be expected. […] Thus, beyond controlling Pol II pause-release, Brd4 regulates transcription bursting, exemplified by the striking correspondence between burst frequency and enhancer-associated Brd4 cluster size. Bursting kinetics cannot be captured by static end-point assays that provide information averaged over a population of cells (e.g. ChIP, NET-Seq etc).
Wide-Field Cell Imaging Experiments. Live cell imaging experiments (tdPCP-EGFP and MCP-mNeonGreen tracking). For time-lapse imaging, a z-stack of 11 frames at 1 frame/second was acquired, by stepping the sample along the z-axis using the nanopositioning stage (250 nm steps). The CCD data were analyzed using IDL 6.4 (ITTVIS). Maximum projection images were calculated for each stack, and the resulting 11 sec/frame movie was used to track the intensities of individual tdPCP-EGFP-tagged transcription sites. A particle tracking routine (Crocker and Grier, 1996) was used for finding the positions of the transcription site in each frame and linking them into a 2D trajectory. The intensity trace of tdPCP-EGFP at the transcription site was corrected for photo-bleaching using the time trace of tdPCP-EGFP in a nearby nuclear region. The auto-correlation function was calculated (for the tdPCP-EGFP fluctuation analysis), or the data were imported in Origin 8.5.0 (OriginLab) and the trace fitted to a single-exponential decay (for the transcription inhibition experiments).
NMG mESCs contain 24×MS2 cassettes integrated in the 3′-UTR of both Nanog alleles and also stably express MCP-mNeonGreen (Ochiai et al., 2014).

Assay [2] has as its system Pol II (FLAG-SNAP-Rpb1) at the Pou5f1 locus. Nature of the assay: ChIP-qPCR of Pol II at the Pou5f1 locus after flavopiridol treatment (mESCs). In kind it is cell-based, mouse. Conditions: 10 μM flavopiridol; by the 5-minute and 12.5-minute time points respectively. On the procedure:
mESCs. Confluent 15 cm dishes (˜10×10^6 OMG SNAP-Rpb1 clone 3 cells) were treated with 10 μM Flavopiridol or DMSO for the indicated times. Methanol-free formaldehyde (Thermo Fisher) was then directly added to the media to 1% v/v final concentration, and dishes were immediately placed on a rotator/shaker for 10 min at RT. Formaldehyde was quenched with 125 mM glycine for 5 min at RT, and cells were scraped and collected with centrifugation (800×g, 5 min at 4° C.) and washed twice with cold PBS. Cells were lysed with SDS lysis buffer (50 mM Tris-HCl pH 8, 10 mM EDTA, 1% SDS) containing protease inhibitors, and placed on ice for 10 min. Volume equivalent to 2×10^6 cells was sonicated to shear the chromatin (Branson SFX 150), and cleared using centrifugation (12,000 g, 10 min at 4° C.). The supernatant was diluted 1:10 in dilution buffer (0.01% SDS, 1.1% Triton X-100, 1.2 mM EDTA, 16.7 mM Tris-HCl pH 8, 167 mM NaCl)+protease inhibitors, pre-cleared using magnetic Protein G beads (Thermo Fisher Scientific 10003 D), for ˜2 hr at 4° C., cleared by separating the beads with a magnet, and 2% of the pre-cleared supernatant was kept at −20° C. as input. […] Eluted chromatin was analyzed with qPCR, using primer pairs specific for different Pou5f1/Oct4 regions.
For orientation: In qPCR the cycle at which signal appears reflects the starting amount.

With `Cc1sc2c(c1C)C(c1ccc(Cl)cc1)=N[C@@H](CC(=O)OC(C)(C)C)c1nnc(C)n1-2` [JQ1], the Nanog burst duration result in assay [1] (JQ1 titration) was “largely unaffected”. For the same molecule, the “Hill equation n, Nanog burst frequency vs. [JQ1]” value in assay [1] (Nanog, mESCs) was found to be 0.9±0.3. For the same molecule, the Nanog burst amplitude result in assay [1] (at higher [JQ1]) is given as “modest reduction”. Further, the Nanog burst frequency result in assay [1] (at low [JQ1]) was “dramatically reduced”.
With `CN1CC[C@H](c2c(O)cc(O)c3c(=O)cc(-c4ccccc4Cl)oc23)[C@H](O)C1` [flavopiridol], the “Pol II ChIP signal at Pou5f1 gene body and 3'UTR regions” value in assay [2] is “significant and near-complete losses”.
